What was measured:
[1] = tested on: mutant (mut) 5′UTR of KDM5C mRNA (RNA, mRNA element) UGGCGUGGGCUGCGGUACGACGGCCACACGCC; experiment: microscale thermophoresis (Monolith NT.115); settings: DEPC water; RNA stock 40 nM; 1 mM putrescine stock (highest), 16-step 1:2 dilution
[2] = tested on: wild-type (WT) 5′UTR of KDM5C mRNA (RNA, mRNA element) UGGCGAAGGCUGCGGUACGACGGCCACACGCC; experiment: microscale thermophoresis (Monolith NT.115); settings: DEPC water; RNA stock 40 nM; 1 mM putrescine stock, 16-step 1:2 dilution; 4PL sigmoidal fit

`NCCCCN` was tested, and the binding [1] was “no” and the Kd [2] was 52.3 µM.
